Patent US9642835B2, “Modulators of GTPase and use in relevant treatment” (STC.UNM, priority 2010, dated 2017)
Read-outs that look alike come from different tables or passages of the source.

Columns and labels:
Cdc42 ACT (Cdc42Q61L) = Cdc42 ACT (Cdc42Q61L) (Homo sapiens, UniProt P60953, Q61L); assay: Bead-based flow cytometry dose response, BODIPY-FL-GTP binding
Method: (§1) Bead sets for multiplex assays were custom synthesized by Duke Scientific Corp (Fremont, Calif.), but may now be ordered from Thermo/Fisher. […] Negative controls, contained the bead mixture with fluorescent GTP, 0.5 mM unlabeled GTP as a competitor, and 1% DMSO. […] The resulting time-dependent data (one file per plate) were analyzed using IDLQuery software to determine the compound activity in each well. Gating based on forward scatter (FS) and side scatter (SS) parameters was used to identify singlet bead populations. Gating based on FL8 emission distinguishes the beads coated with different proteins, and the median fluorescence per bead population was calculated. […] Baselines were set to 100% based on measurements from the 1% DMSO containing positive controls as further described in PubChem. {PubChem #72}
(§2) Briefly, compounds were serially diluted 1:3 a total of eight times from a starting concentration of 10 mM giving a 9-point dilution series in DMSO. The final concentrations of inhibitors in the assay ranged from 10 nM to 100 μM. Dose-response analyses were examined in the presence of NP-HPS buffer containing: a) 1 mM EDTA; or b) 1 mM MgCl2. […] For assays with EDTA we used one multiplex (Rab7 wt, Rab2 wt, H-Ras wt, H-RasG12V, Cdc42 wt, and Cdc42Q61L) and 3 single-plexes (for Rac1 wt, Rac1 Q61L and GST-GFP).
(§3) GTPase activators were identified on the basis of an increase in fluorescent GTP-binding.
(§4) In experiments including magnesium, six GST-GTPases were assayed simultaneously in a single multiplex (Rac1 wt, Rac1Q61L, RhoA wt, RhoAL63, Cdc42 wt and Cdc42Q61L) and 1 nM BODIPY-FL-GTP binding was measured in the presence or absence of the serial drug dilution series. Each dose response series was run in duplicate.

Cdc42 WT = biological target: T1, Cdc42 WT (Homo sapiens, UniProt P60953); assay: as above; settings: for EC50: read-out: Cdc42 WT EC50; for Emax: read-out: Cdc42 WT Efficacy
T1 construct: purchased Cytoskeleton
T1 sequence (P60953 whole entry): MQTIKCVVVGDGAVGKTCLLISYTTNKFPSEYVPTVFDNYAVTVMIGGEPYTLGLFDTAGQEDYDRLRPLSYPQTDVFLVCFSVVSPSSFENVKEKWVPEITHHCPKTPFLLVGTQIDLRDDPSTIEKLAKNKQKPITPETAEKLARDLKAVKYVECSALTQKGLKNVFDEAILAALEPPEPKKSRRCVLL
Method: as §1, §2, §3, §4

wild-type Cdc42 = biological target: T2, wild-type Cdc42 (Homo sapiens, UniProt P60953); assay: Equilibrium binding assay of BODIPY-FL-GTP; settings: 1.5 nM substrate, 1 mM MgCl2; read-out: IC50, inhibition of fluorescent GTP binding to Cdc42 wt
T2 construct: purchased Cytoskeleton
T2 sequence (P60953 whole entry): as above
Method: Changes in GTP binding affinity (Kd) and Bmax in the presence of a given compound were measured in multiplex (Cdc42, Cdc42Q61L, Rab2, Rab7, H-Ras and H-RasG12V) and single-plex formats (Rac1, Rac1Q61L and GST-GFP). GTPases and the GST-GFP control were individually bound to glutathione beads overnight at 4° C., washed with HPSE buffer, then resuspended together or assayed individually in the same buffer containing DTT and BSA. Bound GTPases were analyzed by mixing 5 μl protein-bound beads with 2.5-100 nM BODIPY-GTP in a total volume of 10 μl and incubating with rotation at 4° C. for 90 min. DMSO controls and samples treated with 10 μM of each test compound were run in parallel. Bound fluorescent nucleotide was measured using a Cyan ADP flow cytometer. Data were converted to ASCII format using IDLeQuery, exported and analyzed using Prism (GraphPad Software, Inc., San Diego, Calif.) non-linear, one-site binding.
Wild-type GST-Cdc42 (4 μM) was bound to GSH-beads overnight at 4° C. Cdc42 on GSH-beads was depleted of nucleotide by incubating with 10 mM EDTA containing buffer for 20 min at 30° C., washing twice with NP-HPS buffer, then re-suspended in the same buffer containing 1 mM EDTA/or 1 mM MgCl2, 1 mM DTT and 0.1% BSA. […] Samples incubated at 4° C. for 45 min and binding of fluorescent nucleotide to enzyme measured using an Accuri flow cytometer. […]

[1] = system: Cdc42, Rab2, Rab7, activated Rac1Q61L, Rac1, and H-Ras; assay: Multiplexed primary screen, fluorescent GTP binding; settings: 10 μM compound
Method: Multiplex screening was performed by measuring GTP-binding activities of six GTPases (Cdc42, Rab2, Rab7, activated Rac1Q61L, Rac1, and H-Ras) simultaneously using special glutathione (GSH) bead sets having varied fluorescence intensities at a fixed wavelength^38. Individual GST-GTPase chimeras were tested against approximately 200,000 small molecules from the Molecular Libraries Small Molecule Repository (MLSMR). Results of fluorescent GTP-binding from the entire primary screen are summarized in the open access Pubchem database as required for projects conducted under the Roadmap Initiative (AID 757-761, 764). […] In total 1877 compounds/194,635 were identified as activators or inhibitors in the primary screen. On the order of 100-500 compounds were found active per GTPase target, enabling an unprecedented, comprehensive evaluation of small molecules active against various Ras-related GTPase family members. Here we report one compound active specifically on Cdc42 and structure activity relationships determined through chemical synthesis.
Multiplex analysis of small GTPases, were performed as we have described previously {Surviladze, 2009}. […] Flow cytometric light scatter and fluorescence emission at 530+/−20 nm (FL1) and 665+/−10 nm (FL8) were collected on a Cyan ADP flow cytometer (Beckman Coulter, Fullerton, Calif.). The resulting time-dependent data (one file per plate) were analyzed using IDLQuery software to determine the compound activity in each well. […] Gating based on FL8 emission distinguishes the beads coated with different proteins, and the median fluorescence per bead population was calculated. […]
For detection of GTP binding to small G-proteins we used bead-based multiplex flow cytometry assay {Surviladze, 2009}. […] Six individual GST-GTPases representative of Rho, Ras and Rab branches of the Ras-related GTPase family (Cdc42 wt, Rac1 wt, Rac1Q61L, Rab2 wt, Rab7 wt, and H-Ras wt) were first bound to GSH-beads of a particular fluorescence intensity. […]

[2] = Table 5, R2 analogs, read-out: Cdc42 ACT EC50
[3] = Table 6, R3 analogs, read-out: Cdc42 ACT EC50

Cdc42 ACT (Cdc42Q61L), sequence (P60953 whole entry Q61L): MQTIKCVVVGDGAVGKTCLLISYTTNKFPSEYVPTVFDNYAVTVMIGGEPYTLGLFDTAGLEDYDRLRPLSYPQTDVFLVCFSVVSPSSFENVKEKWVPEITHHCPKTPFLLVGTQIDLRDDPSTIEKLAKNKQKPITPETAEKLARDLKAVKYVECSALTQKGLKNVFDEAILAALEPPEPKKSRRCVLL

| EC50 (Cdc42 WT; Table 5, R2 analogs) [µM] | Emax (Cdc42 WT; Table 5, R2 analogs) [%] | EC50 (Cdc42 ACT (Cdc42Q61L); [3]) [µM] | EC50 (Cdc42 WT; Table 6, R3 analogs) [µM] | Emax (Cdc42 WT; Table 6, R3 analogs) [%] | Structure (SMILES) | other results |
| --- | --- | --- | --- | --- | --- | --- |
| > 100 | 17 |  |  |  | COc1ccc(C2CC(C)=NN2c2ccc(S(N)(=O)=O)cc2)cc1 (stereo not drawn) [CID 14870296] | EC50 (Cdc42 ACT (Cdc42Q61L); [2]): > 100 µM |
| 2.6 | 38 |  |  |  | COc1ccc(C2=NN(c3ccc(S(N)(=O)=O)cc3)C(c3ccc(OC)cc3)C2)cc1 (stereo not drawn) [CID 15201811] | EC50 (Cdc42 ACT (Cdc42Q61L); [2]): 2.5 µM |
| 1.5 | 50 |  |  |  | COc1ccc(C2CC(c3cccc(OC)c3)=NN2c2ccc(S(N)(=O)=O)cc2)cc1 (stereo not drawn) [CID 44143698, 4-[5-(3-methoxyphenyl)-3-(4-methoxyphenyl)-3,4-dihydropyrazol-2-yl]benzenesulfonamide] | EC50 (Cdc42 ACT (Cdc42Q61L); [2]): 1.6 µM |
| > 100 | 33 |  |  |  | COc1ccc(C2CC(C(C)(C)C)=NN2c2ccc(S(N)(=O)=O)cc2)cc1 (stereo not drawn) [CID 44193701] | EC50 (Cdc42 ACT (Cdc42Q61L); [2]): > 100 µM |
| 6 | 59 |  |  |  | COc1ccc(C2CC(c3ccccc3OC)=NN2c2ccc(S(N)(=O)=O)cc2)cc1 (stereo not drawn) [CID 44143702] | EC50 (Cdc42 ACT (Cdc42Q61L); [2]): 5.5 µM; Cdc42 WT Efficacy (Cdc42 WT; Table 5, R2 analogs): 59% |
| 7.3 | 47 |  |  |  | COc1ccc(C2CC(c3ccsc3)=NN2c2ccc(S(N)(=O)=O)cc2)cc1 (stereo not drawn) [CID 44143713] | EC50 (Cdc42 ACT (Cdc42Q61L); [2]): 7.3 µM |

Second part, the compound before the results:

| Structure (SMILES) | EC50 (Cdc42 WT; Table 5, R2 analogs) [µM] | Emax (Cdc42 WT; Table 5, R2 analogs) [%] | EC50 (Cdc42 ACT (Cdc42Q61L); [3]) [µM] | EC50 (Cdc42 WT; Table 6, R3 analogs) [µM] | Emax (Cdc42 WT; Table 6, R3 analogs) [%] | other results |
| --- | --- | --- | --- | --- | --- | --- |
| NS(=O)(=O)c1ccc(N2N=C(c3ccccc3)CC2c2cccc(Br)c2)cc1 (stereo not drawn) [CID 44143703] |  |  | 3.7 | 3.3 | 55 |  |
| NS(=O)(=O)c1ccc(N2N=C(c3ccccc3)CC2c2cccc(F)c2)cc1 (stereo not drawn) [CID 12005853] |  |  | 9.6 | 4.9 | 71 |  |
| NS(=O)(=O)c1ccc(N2N=C(c3ccccc3)CC2c2ccc(Br)cc2)cc1 (stereo not drawn) [CID 13927312, 4-[3-(4-bromophenyl)-5-phenyl-3,4-dihydropyrazol-2-yl]benzene sulfonamide] |  |  | 1.7 | 1.1 | 56 |  |
| COc1ccccc1C1CC(c2ccccc2)=NN1c1ccc(S(N)(=O)=O)cc1 (stereo not drawn) [CID 42628035] |  |  | 78.9 | 22.5 | 45 |  |
| NS(=O)(=O)c1ccc(N2N=C(c3ccccc3)CC2c2ccc(Cl)cc2)cc1 (stereo not drawn) [CID 13927311] |  |  | 3.6 | 2.8 | 69 |  |
| NS(=O)(=O)c1ccc(N2N=C(c3ccccc3)CC2c2cccc(Cl)c2)cc1 (stereo not drawn) [CID 44193696] |  |  | 3.6 | 3.3 | 64 |  |
| COc1cccc(C2CC(c3ccccc3)=NN2c2ccc(S(N)(=O)=O)cc2)c1 (stereo not drawn) [CID 44143701] |  |  | 4.3 | 4.8 | 53 |  |
| COc1ccc(C2CC(c3ccccc3)=NN2c2ccc(S(N)(=O)=O)cc2)cc1OC (stereo not drawn) [MLS000862339] |  |  |  |  |  | IC50 (wild-type Cdc42): 0.4 µM; Outcome of primary screening [1]: specific inhibitors |
| O=C(O)c1cccnc1SCCc1ccccc1 [CID888706] |  |  |  |  |  | Outcome of primary screening [1]: activator |
| COc1ccc(C2CC(c3ccccc3)=NN2c2ccc(S(N)(=O)=O)cc2)cc1OC (stereo not drawn) [CID 2971684] |  |  |  | 5.7 | 75 | EC50 (Cdc42 ACT (Cdc42Q61L)): 6.1 µM |
| COc1ccc(C2CC(c3cccs3)=NN2c2ccc(S(N)(=O)=O)cc2)cc1 (stereo not drawn) [CID 44143712] | 2.9 | 57 |  |  |  | EC50 (Cdc42 ACT (Cdc42Q61L)): 4 µM |
| NS(=O)(=O)c1ccc(N2N=C(c3ccccc3)CC2c2ccccc2Cl)cc1 (stereo not drawn) [CID 44193697] |  |  | 7.4 | 7.2 | 39 |  |
| Cc1ccccc1C1CC(c2ccccc2)=NN1c1ccc(S(N)(=O)=O)cc1 (stereo not drawn) [CID 44143704] |  |  | 13.6 | 16.6 | 55 |  |
| NS(=O)(=O)c1ccc(N2N=C(c3ccccc3)CC2c2ccccc2)cc1 (stereo not drawn) [CID 2837695] |  |  | 16.8 | 31.6 | 56 |  |
| NS(=O)(=O)c1ccc(N2N=C(c3ccccc3)CC2c2ccccc2Br)cc1 (stereo not drawn) [CID 44216862] |  |  | > 100 | > 100 |  |  |
